Measured values: US20070173486A1, “Azetidinecarboxamide derivatives and their use in the treatment of cb1 receptor mediated disordrs” (VERNALIS RESEARCH LIMITED, priority 2003, published 2007)

Molecular target: T1, recombinant human CB1 receptors (Homo sapiens, UniProt P21554)
T1 construct: expressed in transfected cells; host or cells: HEK293
Assay: Binding to CB1 Receptors
Conditions: [3H]-SR-141716A 1 nM; membranes from HEK293 cells expressing recombinant hCB1; Ki calculated from IC50 (Cheng-Prusoff)
Experimental: The binding of compounds of Formula I to recombinant human CB1 receptors was determined in vitro by standard methods, with reference to the procedure described by Rinaldi-Carmona et al. (Rinaldi-Carmona, M., Pialot, F., Congy, C., Redon, E., Barth, F., Bachy, A., Breliere, J. C., Soubre, P., LeFur, G., Life Sci. 1996, 58(15), 1239-1247). Membranes were prepared from HEK293 cells expressing recombinant hCB1 receptors. Binding assays are performed in a total volume of 250 μL, containing [^3H]-SR-141716A (1 nM final concentration), membranes and test compound. Non-specific binding is determined using CP55,940 (10 μM). Serial dilutions are performed starting from test compounds as 10 mM solutions in DMSO. Compounds are tested over the concentration range 10^−10 M to 10^−5 M. Ki values are calculated from IC50 values using the Cheng-Prusoff equation.

T1 sequence (P21554 whole entry): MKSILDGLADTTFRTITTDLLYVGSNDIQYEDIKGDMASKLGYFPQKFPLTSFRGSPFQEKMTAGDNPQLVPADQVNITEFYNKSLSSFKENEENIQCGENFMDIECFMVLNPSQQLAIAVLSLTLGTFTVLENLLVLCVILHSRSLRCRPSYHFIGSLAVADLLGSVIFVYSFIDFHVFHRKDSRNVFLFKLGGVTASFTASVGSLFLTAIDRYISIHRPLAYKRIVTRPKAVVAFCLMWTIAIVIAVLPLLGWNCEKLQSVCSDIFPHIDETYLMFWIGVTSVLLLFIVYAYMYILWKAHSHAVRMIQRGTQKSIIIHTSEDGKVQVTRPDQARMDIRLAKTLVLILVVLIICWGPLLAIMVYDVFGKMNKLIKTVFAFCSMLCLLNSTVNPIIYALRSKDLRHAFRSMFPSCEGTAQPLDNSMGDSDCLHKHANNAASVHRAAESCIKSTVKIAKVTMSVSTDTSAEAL

Row | SMILES | Ki
1 | CC(C)(C)NC(=O)N1CC(OC(c2ccc(Cl)cc2)c2cccnc2Cl)C1 (racemic) [Example 32, 3-[4-chloro-[…]-(2-chloropyridin-3-yl)benzyloxy]-N-(tert-butyl)azetidine-1-carboxamide] | 27.7 nM
2 | CC(C)(C)NC(=O)N1CC(OC(c2ccc(Cl)cc2)c2cccnc2Cl)C1 (single isomer, unassigned) [Example 34, 3-[(S*)-4-chloro-[…]-(2-chloropyridin-3-yl)benzyloxy]-N-(tert-butyl)azetidine-1-carboxamide] | 8.6 nM
3 | CC(C)(C)OC(=O)N1CCCN(C(=O)N2CC(OC(c3ccc(Cl)cc3)c3ccccc3Cl)C2)CC1 (stereo not drawn) [Example 1, 4-[3-(2,4′-dichlorobenzhydryloxy)azetidine-1-carbonyl]-[1,4]diazepine-1-carboxylic acid tert-butyl ester] | 0.8 nM
4 | CN(Cc1ccccc1)C(=O)N1CC(OC(c2ccc(Cl)cc2)c2ccccc2C(F)(F)F)C1 (stereo not drawn) [Example 4, 3-[2-(trifluoromethyl)-4′-chlorobenzhydryloxy]-N-methyl-N-benzyl-azetidine-1-carboxamide] | 1.5 nM
5 | CO[C@H](C(=O)N1CC(OC(c2ccc(Cl)cc2)c2ccc(Cl)cc2Cl)C1)c1ccccc1 (stereo partly drawn) [Example 11, 3-(2,4,4′-trichlorobenzhydryloxy)-1-[(S)-2-methoxy-2-phenylethanoyl]azetidine] | 3.2 nM
6 | CCCCS(=O)(=O)N1CC(OC(c2ccc(Cl)cc2)c2ccc(Cl)cc2Cl)C1 (stereo not drawn) [Example 20, 1-(n-butyl)sulfonyl-3-(2,4,4′-trichlorobenzhydryloxy)azetidine] | 5.5 nM
